# Patent publication US20230263822A1, “MODULATION OF FACTOR 11 EXPRESSION” (Ionis Pharmaceuticals, Inc., priority 2008, published 2023)
# Strand notation (5' to 3'): a small letter for the sugar, then the base; units joined by * are phosphorothioate-linked, units joined directly phosphodiester-linked; [ ] holds rarer units or linkages, { } end groups; capitals alone tell only the bases. e = 2'-O-(2-methoxyethyl) (MOE); [5mC] = 5-methylcytosine; d = 2'-deoxy (DNA)
# System: human Factor 11 mRNA
# Experiment: Antisense inhibition of human Factor 11 in HepG2 cells, lipofectin, 75 nM (Example 1)
# Assay type: cell-based
# Conditions: 75 nM antisense oligonucleotide, ~24 h, relative to untreated control cells, gapmers targeted to SEQ ID NO: 1
# Method: Antisense oligonucleotides targeted to a Factor 11 nucleic acid were tested for their effects on Factor 11 mRNA in vitro. Cultured HepG2 cells at a density of 10,000 cells per well were transfected using lipofectin reagent with 75 nM antisense oligonucleotide. After a treatment period of approximately 24 hours, RNA was isolated from the cells and Factor 11 mRNA levels were measured by quantitative real time PCR. Factor 11 mRNA levels were adjusted according to total RNA content, as measured by RIBOGREEN. Results are presented as percent inhibition of Factor 11, relative to untreated control cells.
# The chimeric antisense oligonucleotides in Tables 1 and 2 were designed as 5-10-5 MOE gapmers. The gapmers are 20 nucleotides in length, wherein the central gap segment is comprised of 10 2′-deoxynucleotides and is flanked on both sides (in the 5′ and 3′ directions) by wings comprising 5 nucleotides each. Each nucleotide in the 5′ wing segment and each nucleotide in the 3′ wing segment has a 2′-MOE modification. The internucleoside linkages throughout each gapmer are phosphorothioate (P=S) linkages. All cytidine residues throughout each gapmer are 5-methylcytidines. “Target start site” indicates the 5′-most nucleotide to which the gapmer is targeted. “Target stop site” indicates the 3′-most nucleotide to which the gapmer is targeted. Each gapmer listed in Table 1 is targeted to SEQ TD NO: 1 (GENBANK Accession No. NM_000128.3) and each gapmer listed in Table 2 is targeted to SEQ TD NO: 2 (GENBANK Accession No. NT_022792.17, truncated from 19598000 to 19624000).
row,Substance,% inhibition [%]
1,412222 (antisense eA*eA*e[5mC]*eA*eA*dT*dA*dT*d[5mC]*d[5mC]*dA*dG*dT*dT*d[5mC]*eT*eT*e[5mC]*eT*e[5mC]) [compound 412222],5
2,412226 (antisense eT*eT*eG*eA*eA*dG*dA*dA*dA*dG*d[5mC]*dT*dT*dT*dA*eA*eG*eT*eA*eA) [compound 412226],17
3,412227 (antisense eA*eG*eT*eA*eT*dT*dT*dT*dA*dG*dT*dT*dG*dG*dA*eG*eA*eT*e[5mC]*e[5mC]) [compound 412227],75
4,412228 (antisense eA*eT*eG*eT*eG*dT*dA*dT*d[5mC]*d[5mC]*dA*dG*dA*dG*dA*eT*eG*e[5mC]*e[5mC]*eT) [compound 412228],71
5,412229 (antisense eG*eT*eA*e[5mC]*eA*d[5mC]*dT*d[5mC]*dA*dT*dT*dA*dT*d[5mC]*d[5mC]*eA*eT*eT*eT*eT) [compound 412229],64
6,412230 (antisense eG*eA*eT*eT*eT*dT*dG*dG*dT*dG*dG*dT*dA*d[5mC]*dA*e[5mC]*eT*e[5mC]*eA*eT) [compound 412230],52
7,412231 (antisense eT*e[5mC]*e[5mC]*eT*eG*dG*dG*d[5mC]*dT*dT*dG*dA*dT*dT*dT*eT*eG*eG*eT*eG) [compound 412231],74
8,412232 (antisense eG*eG*e[5mC]*e[5mC]*eA*d[5mC]*dT*d[5mC]*dA*d[5mC]*d[5mC]*dA*d[5mC]*dG*dA*eA*e[5mC]*eA*eG*eA) [compound 412232],80
9,412233 (antisense eT*eG*eT*e[5mC]*eT*d[5mC]*dT*dG*dA*dG*dT*dG*dG*dG*dT*eG*eA*eG*eG*eT) [compound 412233],64
10,412234 (antisense eG*eT*eT*eT*e[5mC]*d[5mC]*dA*dA*dT*dG*dA*dT*dG*dG*dA*eG*e[5mC]*e[5mC]*eT*e[5mC]) [compound 412234],60
11,412235 (antisense eA*eT*eA*eT*e[5mC]*d[5mC]*dA*d[5mC]*dT*dG*dG*dT*dT*dT*d[5mC]*e[5mC]*eA*eA*eT*eG) [compound 412235],57
12,412236 (antisense e[5mC]*e[5mC]*eA*eT*eA*dG*dA*dA*dA*d[5mC]*dA*dG*dT*dG*dA*eG*e[5mC]*eG*eG*e[5mC]) [compound 412236],72
13,412237 (antisense eT*eG*eA*e[5mC]*eT*d[5mC]*dT*dA*d[5mC]*d[5mC]*d[5mC]*d[5mC]*dA*dT*dA*eG*eA*eA*eA*e[5mC]) [compound 412237],48
14,412238 (antisense e[5mC]*eG*e[5mC]*eA*eA*dA*dA*dT*d[5mC]*dT*dT*dA*dG*dG*dT*eG*eA*e[5mC]*eT*e[5mC]) [compound 412238],71
15,412239 (antisense eT*eT*e[5mC]*eA*eG*dA*dT*dT*dG*dA*dT*dT*dT*dA*dA*eA*eA*eT*eG*e[5mC]) [compound 412239],43
16,412240 (antisense eT*eG*eA*eA*e[5mC]*d[5mC]*d[5mC]*d[5mC]*dA*dA*dA*dG*dA*dA*dA*eG*eA*eT*eG*eT) [compound 412240],32
17,412241 (antisense eT*eA*eT*eT*eA*dT*dT*dT*d[5mC]*dT*dT*dG*dA*dA*d[5mC]*e[5mC]*e[5mC]*e[5mC]*eA*eA) [compound 412241],41
18,412242 (antisense eA*eA*e[5mC]*eA*eA*dG*dG*d[5mC]*dA*dA*dT*dA*dT*d[5mC]*dA*eT*eA*e[5mC]*e[5mC]*e[5mC]) [compound 412242],49
19,412243 (antisense eT*eT*e[5mC]*e[5mC]*eA*dG*dT*dT*dT*d[5mC]*dA*dA*d[5mC]*dA*dA*eG*eG*e[5mC]*eA*eA) [compound 412243],70
20,412244 (antisense eG*eA*eA*eG*eG*d[5mC]*dA*dG*dG*d[5mC]*dA*dT*dA*dT*dG*eG*eG*eT*e[5mC]*eG) [compound 412244],53
21,412245 (antisense eG*eT*e[5mC]*eA*e[5mC]*dT*dA*dA*dG*dG*dG*dT*dA*dT*d[5mC]*eT*eT*eG*eG*e[5mC]) [compound 412245],75
22,412246 (antisense eA*eG*eA*eT*e[5mC]*dA*dT*d[5mC]*dT*dT*dA*dT*dG*dG*dG*eT*eT*eA*eT*eT) [compound 412246],68
23,412247 (antisense eT*eA*eG*e[5mC]*e[5mC]*dG*dG*d[5mC]*dA*d[5mC]*dA*dG*dA*dT*d[5mC]*eA*eT*e[5mC]*eT*eT) [compound 412247],75

row,Substance,% inhibition [%]
1,412248 (antisense e[5mC]*e[5mC]*eA*eG*eA*dT*dG*d[5mC]*d[5mC]*dA*dG*dA*d[5mC]*d[5mC]*dT*e[5mC]*eA*eT*eT*eG) [compound 412248],53
2,412249 (antisense e[5mC]*eA*eT*eT*e[5mC]*dA*d[5mC]*dA*d[5mC]*dT*dG*d[5mC]*dT*dT*dG*eA*eG*eT*eT*eT) [compound 412249],55
3,412250 (antisense eT*eG*eG*e[5mC]*eA*d[5mC]*dA*dG*dT*dG*dA*dA*d[5mC]*dT*d[5mC]*eA*eA*e[5mC]*eA*e[5mC]) [compound 412250],63
4,412251 (antisense e[5mC]*eT*eA*eG*e[5mC]*dA*dT*dT*dT*dT*d[5mC]*dT*dT*dA*d[5mC]*eA*eA*eA*e[5mC]*eA) [compound 412251],58
5,412252 (antisense eT*eT*eA*eT*eG*dG*dT*dA*dA*dT*dT*d[5mC]*dT*dT*dG*eG*eA*e[5mC]*eT*e[5mC]) [compound 412252],39
6,412253 (antisense eA*eA*eA*eT*eA*dT*dT*dG*d[5mC]*d[5mC]*dT*dT*dA*dT*dG*eG*eT*eA*eA*eT) [compound 412253],20
7,412254 (antisense eT*eA*eT*e[5mC]*eT*dG*d[5mC]*d[5mC]*dT*dA*dT*dA*dT*dA*dG*eT*eA*eA*eT*e[5mC]) [compound 412254],16
8,412255 (antisense eG*e[5mC]*e[5mC]*eA*e[5mC]*dT*dA*d[5mC]*dT*dT*dG*dG*dT*dT*dA*eT*eT*eT*eT*e[5mC]) [compound 412255],38
9,412256 (antisense eA*eA*e[5mC]*eA*eA*dA*dT*d[5mC]*dT*dA*dT*dT*dT*dA*dT*eG*eG*eT*eG*eG) [compound 412256],39
10,412257 (antisense e[5mC]*eT*eG*e[5mC]*eA*dA*dA*dA*dT*dG*dG*dT*dG*dA*dA*eG*eA*e[5mC]*eT*eG) [compound 412257],57
11,412258 (antisense eG*eT*eG*eT*eA*dG*dA*dT*dT*d[5mC]*d[5mC]*dT*dG*d[5mC]*dA*eA*eA*eA*eT*eG) [compound 412258],44
12,412259 (antisense eT*eT*eT*eT*e[5mC]*dA*dG*dG*dA*dA*dA*dG*dT*dG*dT*eA*eT*e[5mC]*eT*eT) [compound 412259],37
13,412260 (antisense e[5mC]*eA*e[5mC]*eA*eA*dA*dT*d[5mC]*dA*dT*dT*dT*dT*dT*d[5mC]*eA*eG*eG*eA*eA) [compound 412260],27
14,412261 (antisense eT*e[5mC]*e[5mC]*e[5mC]*eA*dA*dG*dA*dT*dA*dT*dT*dT*dT*dA*eA*eA*eT*eA*eA) [compound 412261],3
15,412262 (antisense eA*eA*eT*eG*eA*dG*dA*dT*dA*dA*dA*dT*dA*dT*dT*eT*eG*e[5mC]*eA*e[5mC]) [compound 412262],34
16,412263 (antisense eT*eG*eA*eA*eA*dG*d[5mC]*dT*dA*dT*dG*dT*dG*dG*dT*eG*eA*e[5mC]*eA*eA) [compound 412263],33
17,412264 (antisense e[5mC]*eA*e[5mC]*eA*e[5mC]*dT*dT*dG*dA*dT*dG*dA*dA*dT*dT*eG*eT*eA*eT*eA) [compound 412264],27
18,413460 (antisense eT*eA*e[5mC]*e[5mC]*eT*dT*dG*dA*dG*dA*dG*dA*dA*dT*dT*eG*e[5mC]*eT*eT*eG) [compound 413460],40
19,413461 (antisense eG*eT*e[5mC]*eA*eG*dA*dA*dA*dT*dA*dT*dA*d[5mC]*d[5mC]*dT*eT*eG*eA*eG*eA) [compound 413461],39
20,413462 (antisense eA*eT*e[5mC]*eT*eT*dA*dG*dT*dA*dT*dG*dT*d[5mC]*dA*dG*eA*eA*eA*eT*eA) [compound 413462],12
21,413463 (antisense eG*eA*eG*eT*e[5mC]*dA*d[5mC]*dA*d[5mC]*dA*dT*dT*d[5mC]*dA*d[5mC]*e[5mC]*eA*eG*eA*eA) [compound 413463],74
22,413464 (antisense eG*eT*eG*eA*eG*d[5mC]*dA*dT*dT*dG*d[5mC]*dT*dT*dG*dA*eA*eA*eG*eA*eA) [compound 413464],42
23,413465 (antisense e[5mC]*eT*eT*eA*eT*dT*dT*dG*dG*dT*dG*dT*dG*dA*dG*e[5mC]*eA*eT*eT*eG) [compound 413465],80
